# Laboratory results from patent publication US11530210B2, “Substituted heteroaromatic pyrazolo-pyridines and their use as GLUN2B receptor modulators” (JANSSEN PHARMACEUTICA NV, priority 2019, dated 2022).
# Target: T1, human GluN1/GluN2B NMDA receptors (Homo sapiens, UniProt Q13224)
# T1 construct: expressed in transfected cells
# Test: Calcium flux (FLIPR) assay on cloned human NR1/GluN2B ion channels expressed in mammalian cells (standard and HTS variants)
# Assay type: cell-based
# Conditions: cells expressing human GluN1/GluN2B, glutamate and glycine co-agonists
# Procedure: Effects of Test Articles on Cloned Human NR1/GuN2B Ion Channels Expressed in Mammalian Cells
# NMDA receptors are ion channels that are highly permeable to Ca^2+ ions, rendering it possible to monitor NMDA receptor function using cell-based calcium flux assay. In this assay, co-agonists glutamate and glycine are added to cells heterologously expressing human GluN1/GluN2B NMDA receptors to initiate cellular Ca^2+ influx. The time course of the changes in intracellular calcium is measured using a fluorescent dye and a FLIPR (Fluorometric Imaging Plate Reader) device.
# Twenty-four hours before measurements, the expression of the NMDA receptors in the stable cell line is induced with Tet-On inducible system in the presence of a non-selective NMDA receptor blocker. On the day of the experiment, cell culture media is carefully washed, and the cells are loaded with Calcium 5 Dye Kit (Molecular Devices) in dye loading buffer containing 137 mM NaCl, 4 mM KCl, 2 mM CaCl2, 0.5 mM MgCl2 (standard assay) or 1.5 mM MgCl2 (HTS assay), 10 mM HEPES and 5 mM D-glucose; pH 7.4. After 1 h incubation at the room temperature, the dye is washed away with the assay buffer (137 mM NaCl (standard assay) or 150 mM (HTS assay), 4 mM KCl (standard assay) or 3 mM (HTS assay), 2 mM CaCl2), 0.01 mM EDTA, 10 mM HEPES and 5 mM D-glucose; pH 7.4) In the FLIPR TETRA reader, various concentrations of the test compounds are added to the cells for 5 min while fluorescence is monitored to detect potential agonist activity. Next, co-agonists, glutamate and glycine are added for another 5 minutes. The concentration of glutamate corresponding to ˜EC40 (standard assay) or EC40 (HTS assay) is used to maximize the assay's signal window and ability to detect NMDA receptor antagonists and negative allosteric modulators. A saturating concentration (10 μM) of glycine is also present in the assay. A non-selective NMDA receptor antagonist, (+)MK-801 is used as a positive control for antagonist activity. The fluorescent signal in the presence of test compounds is quantified and normalized to the signal defined by the appropriate control wells.
# T1 sequence (Q13224 27-1484, other chains not shown): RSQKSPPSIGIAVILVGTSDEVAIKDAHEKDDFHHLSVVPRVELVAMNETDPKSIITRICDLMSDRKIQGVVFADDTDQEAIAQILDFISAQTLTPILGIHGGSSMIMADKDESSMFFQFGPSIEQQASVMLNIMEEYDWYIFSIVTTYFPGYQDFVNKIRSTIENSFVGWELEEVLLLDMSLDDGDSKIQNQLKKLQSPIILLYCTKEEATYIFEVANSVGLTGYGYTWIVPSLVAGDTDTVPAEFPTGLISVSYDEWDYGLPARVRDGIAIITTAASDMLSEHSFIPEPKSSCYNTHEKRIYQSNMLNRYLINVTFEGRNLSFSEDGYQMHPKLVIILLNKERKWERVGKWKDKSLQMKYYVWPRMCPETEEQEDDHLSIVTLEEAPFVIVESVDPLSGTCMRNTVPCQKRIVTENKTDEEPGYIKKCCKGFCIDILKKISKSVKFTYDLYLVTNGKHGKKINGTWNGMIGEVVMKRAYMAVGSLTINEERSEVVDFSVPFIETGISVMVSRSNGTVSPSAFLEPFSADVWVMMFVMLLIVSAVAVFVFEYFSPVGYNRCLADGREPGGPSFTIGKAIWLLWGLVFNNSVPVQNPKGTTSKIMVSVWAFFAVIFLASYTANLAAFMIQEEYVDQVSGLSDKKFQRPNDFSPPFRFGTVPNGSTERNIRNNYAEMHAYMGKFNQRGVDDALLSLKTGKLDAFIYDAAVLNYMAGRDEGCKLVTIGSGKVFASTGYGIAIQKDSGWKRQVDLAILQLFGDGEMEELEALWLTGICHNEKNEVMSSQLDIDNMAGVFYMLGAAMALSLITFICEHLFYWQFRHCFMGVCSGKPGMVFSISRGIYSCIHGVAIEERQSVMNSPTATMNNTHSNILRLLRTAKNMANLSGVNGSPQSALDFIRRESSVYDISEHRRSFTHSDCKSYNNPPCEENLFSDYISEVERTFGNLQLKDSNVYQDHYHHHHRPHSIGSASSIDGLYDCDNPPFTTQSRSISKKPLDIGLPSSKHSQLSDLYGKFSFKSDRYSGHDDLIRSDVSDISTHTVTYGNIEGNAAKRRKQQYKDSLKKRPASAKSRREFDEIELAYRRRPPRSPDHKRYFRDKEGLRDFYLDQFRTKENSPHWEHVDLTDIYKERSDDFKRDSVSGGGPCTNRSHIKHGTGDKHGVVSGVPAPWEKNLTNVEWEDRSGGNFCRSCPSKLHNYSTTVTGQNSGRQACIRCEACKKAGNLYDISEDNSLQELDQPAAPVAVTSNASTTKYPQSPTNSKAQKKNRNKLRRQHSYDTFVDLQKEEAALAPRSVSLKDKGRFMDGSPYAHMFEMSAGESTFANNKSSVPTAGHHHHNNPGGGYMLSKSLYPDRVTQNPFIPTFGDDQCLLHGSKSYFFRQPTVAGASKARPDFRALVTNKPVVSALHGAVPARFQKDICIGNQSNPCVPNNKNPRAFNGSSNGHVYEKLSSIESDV
row,SMILES,IC50 [µM]
1,"Cc1cc(Cn2ncc3ncc(-c4cccc(C(F)(F)F)c4)cc32)n(C)n1 [Example 37, 1-[(2,5-Dimethylpyrazol-3-yl)methyl]-6-[3-(trifluoromethyl)phenyl]pyrazolo[4,3-b]pyridine]",3.95
2,"Fc1ccc(-c2cnc3cnn(Cc4cn[nH]c4)c3c2)cc1C(F)F [Example 38, 6-[3-(Difluoromethyl)-4-fluoro-phenyl]-1-(1H-pyrazol-4-ylmethyl)pyrazolo[4,3-b]pyridine]",0.226
3,"Cn1ccc(Cn2ncc3ncc(-c4ccc(F)c(C(F)F)c4)cc32)n1 [Example 39, 6-[3-(Difluoromethyl)-4-fluoro-phenyl]-1-[(1-methylpyrazol-3-yl)methyl]pyrazolo[4,3-b]pyridine]",0.271
4,"FC(F)Oc1cc(-c2cnc3cnn(Cc4cn[nH]c4)c3c2)ccc1Cl [Example 41, 6-[4-Chloro-3-(difluoromethoxy)phenyl]-1-(1H-pyrazol-4-ylmethyl)pyrazolo[4,3-b]pyridine]",0.423
5,"Cc1cc(Cn2ncc3ncc(-c4ccc(F)cc4)cc32)on1 [Example 42, 5-[[6-(4-Fluorophenyl)pyrazolo[4,3-b]pyridin-1-yl]methyl]-3-methyl-isoxazole]",0.475
6,"Cc1cc(Cn2ncc3ncc(-c4ccc(F)cc4)cc32)no1 [Example 43, 3-[[6-(4-Fluorophenyl)pyrazolo[4,3-b]pyridin-1-yl]methyl]-5-methyl-isoxazole]",0.139
7,"FC(F)(F)c1cccc(-c2cnc3cnn(Cc4ccon4)c3c2)c1 [Example 44, 3-[[6-[3-(Trifluoromethyl)phenyl]pyrazolo[4,3-b]pyridin-1-yl]methyl]isoxazole]",0.165
8,"Cc1cc(Cn2ncc3ncc(-c4cccc(C(C)(F)F)c4)cc32)no1 [Example 45, 3-[[6-[3-(1,1-Difluoroethyl)phenyl]pyrazolo[4,3-b]pyridin-1-yl]methyl]-5-methyl-isoxazole]",0.044
9,"FC(F)(F)c1cccc(-c2cnc3cnn(Cc4cocn4)c3c2)c1 [Example 46, 4-[[6-[3-(Trifluoromethyl)phenyl]pyrazolo[4,3-b]pyridin-1-yl]methyl]oxazole]",0.538
10,"Cc1cc(Cn2ncc3ncc(-c4cccc(C(F)(F)F)c4)cc32)no1 [Example 47, 5-Methyl-3-[[6-[3-(trifluoromethyl)phenyl]pyrazolo[4,3-b]pyridin-1-yl]methyl]isoxazole]",0.148
11,"Cc1ncc(Cn2ncc3ncc(-c4ccc(F)c(C)c4)cc32)o1 [Example 48, 5-[[6-(4-Fluoro-3-methyl-phenyl)pyrazolo[4,3-b]pyridin-1-yl]methyl]-2-methyl-oxazole]",0.113
12,"Cc1cnc(Cn2ncc3ncc(-c4ccc(F)c(C)c4)cc32)o1 [Example 49, 2-[[6-(4-Fluoro-3-methyl-phenyl)pyrazolo[4,3-b]pyridin-1-yl]methyl]-5-methyl-oxazole]",0.053
13,"Fc1ccc(-c2cnc3cnn(Cc4ccno4)c3c2)cc1C(F)F [Example 50, 5-[[6-[3-(Difluoromethyl)-4-fluoro-phenyl]pyrazolo[4,3-b]pyridin-1-yl]methyl]isoxazole]",0.031
14,"Fc1ccc(-c2cnc3cnn(Cc4ccon4)c3c2)cc1C(F)F [Example 51, 3-[[6-[3-(Difluoromethyl)-4-fluoro-phenyl]pyrazolo[4,3-b]pyridin-1-yl]methyl]isoxazole]",0.023
15,"Cc1cc(Cn2ncc3ncc(-c4ccc(F)c(C(F)F)c4)cc32)no1 [Example 53, 3-[[6-[3-(Difluoromethyl)-4-fluoro-phenyl]pyrazolo[4,3-b]pyridin-1-yl]methyl]-5-methyl-isoxazole]",0.018
16,"Cc1ncc(Cn2ncc3ncc(-c4ccc(F)c(C(F)F)c4)cc32)o1 [Example 54, 5-[[6-[3-(Difluoromethyl)-4-fluoro-phenyl]pyrazolo[4,3-b]pyridin-1-yl]methyl]-2-methyl-oxazole]",0.133
17,"Cc1nc(Cn2ncc3ncc(-c4ccc(F)c(C(F)F)c4)cc32)co1 [Example 55, 4-[[6-[3-(Difluoromethyl)-4-fluoro-phenyl]pyrazolo[4,3-b]pyridin-1-yl]methyl]-2-methyl-oxazole]",0.285
18,"Cc1noc(C)c1Cn1ncc2ncc(-c3ccc(F)c(C(F)F)c3)cc21 [Example 57, 4-[[6-[3-(Difluoromethyl)-4-fluoro-phenyl]pyrazolo[4,3-b]pyridin-1-yl]methyl]-3,5-dimethyl-isoxazole]",0.082

row,SMILES,IC50 [µM]
1,"Cc1cc(Cn2ncc3ncc(-c4ccc(F)c(C(C)(F)F)c4)cc32)no1 [Example 58, 3-[[6-[3-(1,1-Difluoroethyl)-4-fluoro-phenyl]pyrazolo[4,3-b]pyridin-1-yl]methyl]-5-methyl-isoxazole]",0.158
2,"Cc1cc(Cn2ncc3ncc(-c4ccc(F)c(OC(F)F)c4)cc32)no1 [Example 59, 3-[[6-[3-(Difluoromethoxy)-4-fluoro-phenyl]pyrazolo[4,3-b]pyridin-1-yl]methyl]-5-methyl-isoxazole]",0.061
3,"Cc1ncc(Cn2ncc3ncc(-c4ccc(F)c(OC(F)F)c4)cc32)o1 [Example 60, 5-[[6-[3-(Difluoromethoxy)-4-fluoro-phenyl]pyrazolo[4,3-b]pyridin-1-yl]methyl]-2-methyl-oxazole]",0.559
4,"Cc1cnc(Cn2ncc3ncc(-c4ccc(F)c(OC(F)F)c4)cc32)o1 [Example 61, 2-[[6-[3-(Difluoromethoxy)-4-fluoro-phenyl]pyrazolo[4,3-b]pyridin-1-yl]methyl]-5-methyl-oxazole]",0.16
5,"Cc1cc(Cn2ncc3ncc(-c4ccc(Cl)c(OC(F)F)c4)cc32)no1 [Example 62, 3-[[6-[4-Chloro-3-(difluoromethoxy)phenyl]pyrazolo[4,3-b]pyridin-1-yl]methyl]-5-methyl-isoxazole]",0.159
6,"Cc1ncc(Cn2ncc3ncc(-c4ccc(F)c(C)c4F)cc32)o1 [Example 63, 5-[[6-(2,4-Difluoro-3-methyl-phenyl)pyrazolo[4,3-b]pyridin-1-yl]methyl]-2-methyl-oxazole]",0.268
7,"Cc1cc(Cn2ncc3ncc(-c4cccc(C(F)(F)F)c4)cc32)ns1 [Example 64, 5-Methyl-3-[[6-[3-(trifluoromethyl)phenyl]pyrazolo[4,3-b]pyridin-1-yl]methyl]isothiazole]",2.24
8,"Cc1cnc(Cn2ncc3ncc(-c4ccc(F)c(C(F)F)c4)cc32)s1 [Example 65, 2-[[6-[3-(Difluoromethyl)-4-fluoro-phenyl]pyrazolo[4,3-b]pyridin-1-yl]methyl]-5-methyl-thiazole]",0.084
9,"Cc1csc(Cn2ncc3ncc(-c4ccc(F)c(C(F)F)c4)cc32)n1 [Example 66, 2-[[6-[3-(Difluoromethyl)-4-fluoro-phenyl]pyrazolo[4,3-b]pyridin-1-yl]methyl]-4-methyl-thiazole]",0.41
10,"Cc1nc(Cn2ncc3ncc(-c4ccc(F)c(C(F)F)c4)cc32)cs1 [Example 67, 4-[[6-[3-(Difluoromethyl)-4-fluoro-phenyl]pyrazolo[4,3-b]pyridin-1-yl]methyl]-2-methyl-thiazole]",0.466
11,"Cc1cnc(Cn2ncc3ncc(-c4ccc(F)c(C)c4)cc32)s1 [Example 68, 2-[[6-(4-Fluoro-3-methyl-phenyl)pyrazolo[4,3-b]pyridin-1-yl]methyl]-5-methyl-thiazole]",0.265
12,"Cc1cnc(Cn2ncc3ncc(-c4ccc(F)c(OC(F)F)c4)cc32)s1 [Example 69, 2-[[6-[3-(Difluoromethoxy)-4-fluoro-phenyl]pyrazolo[4,3-b]pyridin-1-yl]methyl]-5-methyl-thiazole]",0.104
13,"Cc1cnc(Cn2ncc3ncc(-c4ccc(F)c(C)c4F)cc32)s1 [Example 70, 2-[[6-(2,4-Difluoro-3-methyl-phenyl)pyrazolo[4,3-b]pyridin-1-yl]methyl]-5-methyl-thiazole]",0.35
14,"Cn1cnc(Cn2ncc3ncc(-c4cccc(C(F)(F)F)c4)cc32)n1 [Example 71, 1-[(1-Methyl-1,2,4-triazol-3-yl)methyl]-6-[3-(trifluoromethyl)phenyl]pyrazolo[4,3-b]pyridine]",0.891
15,"Cn1cc(Cn2ncc3ncc(-c4ccc(F)c(OC(F)F)c4)cc32)nn1 [Example 72, 6-[3-(Difluoromethoxy)-4-fluoro-phenyl]-1-[(1-methyltriazol-4-yl)methyl]pyrazolo[4,3-b]pyridine]",0.827
16,"Cn1cnc(Cn2ncc3ncc(-c4ccc(F)c(C(F)F)c4)cc32)n1 [Example 73, 6-[3-(Difluoromethyl)-4-fluoro-phenyl]-1-[(1-methyl-1,2,4-triazol-3-yl)methyl]pyrazolo[4,3-b]pyridine]",0.383
17,"Cn1cnnc1Cn1ncc2ncc(-c3ccc(F)c(C(F)F)c3)cc21 [Example 74, 6-[3-(Difluoromethyl)-4-fluoro-phenyl]-1-[(4-methyl-1,2,4-triazol-3-yl)methyl]pyrazolo[4,3-b]pyridine]",0.111
